Measurements: paper PMC12101465, “Synthesis and anti-mycobacterial activity of novel medium-chain β-lactone derivatives: a multi-target strategy to combat Mycobacterium abscessus” (RSC Medicinal Chemistry, 2025)
In brackets after ≈: the same amount, converted by molar mass.

Test: in vitro
Design: resazurin reduction viability assay, fluorescence, cytotoxicity on murine macrophages
Details: mouse, raw macrophages; read-out: CC50 (µg/mL) Raw264.7
Description: The cytotoxicity of the new synthesized β-lactone analogs against eukaryotic cells was measured based on the reduction of resazurin as a value of cellular viability by metabolic activity, as previously described.[45,54,55] Murine (Raw264.7) macrophages (American Type Culture Collection TIB-71) were incubated with two-fold dilution of each compound for 24 h at 37 °C and 5% CO2. Then, 20 μL of a 0.025% (w/v) resazurin solution was added to each well, and fluorescence was measured following a 4 h incubation as described above. The compound concentration leading to 50% macrophage cell death was defined as the CC50.[28,29,56] All experiments were performed as three independent biological replicates. See ESI ^† for detailed protocol. 3.5. Cell toxicity of beta-lactone derivatives
For `C#CCCC1OC(=O)C1CCCCCCCC/C=C\CCCCCCCC` (stereo not shown) [VM035p, (Z)-4-(But-3-yn-1-yl)-3-(octadec-9-en-1-yl)oxetan-2-one], the CC50 at 24 h was over 125 µg/mL. In the case of `C#CCCCCCC[C@@H]1C(=O)O[C@H]1CCC` (racemic) [VM053p, (±)-trans 3-(Oct-7-yn-1-yl)-4-propyloxetan-2-one], the CC50 at 24 h is reported as over 125 µg/mL. Work on `CCCCCCCCOCCCCCCCCC1(F)C(=O)OC1CCC` (stereo not shown) [VM046, 3-Fluoro-3-(8-(octyloxy)octyl)-4-propyloxetan-2-one] yielded a CC50 at 24 h of over 125 µg/mL. `C#CCCC1OC(=O)C1CCCCCCCCCCCC` (stereo not shown) [VM054p, 4-(But-3-yn-1-yl)-3-dodecyloxetan-2-one] gave a CC50 at 24 h of over 125 µg/mL. `CCCCCCCC/C=C\CCCCCCC[C@@H]1OC(=O)[C@H]1CCC` (racemic) [VM036, (±)-trans 4-((Z)-Heptadec-8-en-1-yl)-3-propyloxetan-2-one] gave a CC50 at 24 h of over 125 µg/mL. For `CCCCCC[C@@H]1C(=O)O[C@H]1CCC` (racemic) [VM019, (±)-trans 3-Hexyl-4-propyloxetan-2-one], the CC50 at 24 h was over 125 µg/mL. In the case of `CCCCCCNC(=O)CCCCCCCC1C(=O)OC1CCC` (stereo not shown) [VM047, N-Hexyl-8-(2-oxo-4-propyloxetan-3-yl)octanamide], the CC50 at 24 h is reported as over 125 µg/mL. Work on `CCCCCCCC[C@@H]1C(=O)O[C@H]1CCC` (racemic) [VM038, (±)-trans 3-Octyl-4-propyloxetan-2-one] yielded a CC50 at 24 h of over 125 µg/mL. With `CCCCCCCC/C=C\CCCCCC[C@@H]1C(=O)O[C@H]1CCCCCC` (racemic) [VM022, (±)-trans (Z)-3-(Hexadec-7-en-1-yl)-4-hexyloxetan-2-one] the CC50 at 24 h was over 125 µg/mL. For `CCCCCCCCCCCC[C@@H]1C(=O)O[C@@H]1CCC` (racemic) [VM041, (±)-cis 3-Dodecyl-4-propyloxetan-2-one], the CC50 at 24 h was over 125 µg/mL. Work on `CCCCCCCC/C=C\CCCCCC[C@@H]1C(=O)O[C@@H]1CCCCCCCCC` (racemic) [VM023, (±)-cis (Z)-3-(Hexadec-7-en-1-yl)-4-nonyloxetan-2-one] yielded a CC50 at 24 h of over 125 µg/mL. `CCCCCCCCCCCCC1(F)C(=O)OC1CCC` (stereo not shown) [VM044, 3-Dodecyl-3-fluoro-4-propyloxetan-2-one] showed a CC50 at 24 h of over 125 µg/mL. `CCCCCCCCC1C(=O)NC1CCC` (stereo not shown) [VM058, 3-Octyl-4-propylazetidin-2-one] gave a CC50 at 24 h of 40.1 ± 0.6 µg/mL (≈ 178 µM). With `CCC[C@@H]1OC(=O)[C@H]1CCCCCCCCN=[N+]=[N-]` (racemic) [VM055p, (±)-trans 3-(8-Azidooctyl)-4-propyloxetan-2-one] the CC50 at 24 h was over 125 µg/mL. In the case of `C#CCCCCCCCCCC1C(=O)OC1CCC` (stereo not shown) [VM051p, 4-Propyl-3-(undec-10-yn-1-yl)oxetan-2-one], the CC50 at 24 h is reported as over 125 µg/mL. `CCCCCCCCCCCC[C@@H]1C(=O)O[C@H]1CCC` (racemic) [VM040, (±)-trans 3-Dodecyl-4-propyloxetan-2-one] showed a CC50 at 24 h of over 125 µg/mL. For `CCCCCCCC/C=C\CCCCCCC[C@H]1OC(=O)[C@H]1CCC` (racemic) [VM037, (±)-cis 4-((Z)-Heptadec-8-en-1-yl)-3-propyloxetan-2-one], the CC50 at 24 h was over 125 µg/mL. Work on `CCCCCCCCCC[C@@H]1C(=O)O[C@@H]1CCC` (racemic) [VM027, (±)-cis 3-Decyl-4-propyloxetan-2-one] yielded a CC50 at 24 h of over 125 µg/mL. Compound `CCCCCCCCCCC1C(=O)OC1CCC` (stereo not shown) [VM025, 3-Decyl-4-propyloxetan-2-one] has a CC50 at 24 h of over 125 µg/mL. `CCCCCCCCCC[C@@H]1C(=O)O[C@H]1CCC` (racemic) [VM026, (±)-trans 3-Decyl-4-propyloxetan-2-one] showed a CC50 at 24 h of over 125 µg/mL. In the case of `CCCCCCCC/C=C\CCCCCCCC[C@@H]1C(=O)O[C@H]1CCC` (racemic) [VM029, (±)-trans (Z)-3-(Octadec-9-en-1-yl)-4-propyloxetan-2-one], the CC50 at 24 h is reported as over 125 µg/mL. Compound `CCCCCCCC[C@@H]1C(=O)O[C@@H]1CCC` (racemic) [VM039, (±)-cis 3-Octyl-4-propyloxetan-2-one] has a CC50 at 24 h of 119 ± 4 µg/mL (≈ 526 µM). In the case of `CCCCCCCC/C=C\CCCCCCCCC1C(=O)OC1CCC` (stereo not shown) [VM028, (Z)-3-(Octadec-9-en-1-yl)-4-propyloxetan-2-one], the CC50 at 24 h is reported as over 125 µg/mL. `C#CCCC[C@@H]1C(=O)O[C@H]1CCC` (racemic) [VM050p, (±)-trans 3-(Pent-4-yn-1-yl)-4-propyloxetan-2-one] gave a CC50 at 24 h of 44.1 ± 2.4 µg/mL (≈ 245 µM). `CCCCCCCC/C=C\CCCCCC[C@@H]1C(=O)O[C@@H]1CCCCCC` (racemic) [VM024, (±)-cis (Z)-3-(Hexadec-7-en-1-yl)-4-hexyloxetan-2-one] showed a CC50 at 24 h of over 125 µg/mL. In the case of `CCCCCCCCCCCCC1C(=O)NC1CCC` (stereo not shown) [VM056, 3-Dodecyl-4-propylazetidin-2-one], the CC50 at 24 h is reported as 30.6 ± 1.1 µg/mL (≈ 109 µM). Compound `C#CCCCC1C(=O)OC1CCC` (stereo not shown) [VM049p, 3-(Pent-4-yn-1-yl)-4-propyloxetan-2-one] has a CC50 at 24 h of 68.1 ± 3.1 µg/mL (≈ 378 µM). With `CCCCCCCC/C=C\CCCCCCC1(F)C(=O)OC1CCC` (stereo not shown) [VM042, (Z)-3-Fluoro-3-(hexadec-7-en-1-yl)-4-propyloxetan-2-one] the CC50 at 24 h was over 125 µg/mL. `C#CCCCCCCC[C@@H]1C(=O)O[C@H]1CCC` (racemic) [VM052p, (±)-trans 3-(Non-8-yn-1-yl)-4-propyloxetan-2-one] gave a CC50 at 24 h of over 125 µg/mL. In the case of `CCCCCCCC/C=C\CCCCCC[C@@H]1C(=O)O[C@H]1CC` (racemic) [VM017, (±)-trans (Z)-4-Ethyl-3-(hexadec-7-en-1-yl)oxetan-2-one], the CC50 at 24 h is reported as over 125 µg/mL. For `CCCCCCCCOCCCCCCCCC1C(=O)OC1CCC` (stereo not shown) [VM045, 3-(8-(Octyloxy)octyl)-4-propyloxetan-2-one], the CC50 at 24 h was over 125 µg/mL. Work on `CCCCCCCC[C@@H]1C(=O)N[C@H]1CCC` (racemic) [VM057, (±)-trans 3-Octyl-4-propylazetidin-2-one] yielded a CC50 at 24 h of 52.7 ± 1.1 µg/mL (≈ 234 µM). Work on `CCCCCCCC/C=C\CCCCCCCC[C@@H]1C(=O)O[C@@H]1CCC` (racemic) [VM030, (±)-cis (Z)-3-(Octadec-9-en-1-yl)-4-propyloxetan-2-one] yielded a CC50 at 24 h of over 125 µg/mL. In the case of `CCCCCCCC/C=C\CCCCCC[C@@H]1C(=O)O[C@H]1CCCCCCCCC` (racemic) [VM021, (±)-trans (Z)-3-(Hexadec-7-en-1-yl)-4-nonyloxetan-2-one], the CC50 at 24 h is reported as over 125 µg/mL. In the case of `CCCCCCCC(=O)NCCCCCCC1C(=O)OC1CCC` (stereo not shown) [VM048, N-(6-(2-Oxo-4-propyloxetan-3-yl)hexyl)octanamide], the CC50 at 24 h is reported as over 125 µg/mL. Work on `CCCCCCCCC1(F)C(=O)OC1CCC` (mixture of isomers) [VM043, 3-Fluoro-3-octyl-4-propyloxetan-2-one] yielded a CC50 at 24 h of over 125 µg/mL. `CCCCCCCC/C=C\CCCCCC[C@@H]1C(=O)O[C@@H]1CC` (racemic) [VM018, (±)-cis (Z)-4-Ethyl-3-(hexadec-7-en-1-yl)oxetan-2-one] gave a CC50 at 24 h of over 125 µg/mL.
